From the supplement of paper PMC4862054

Assays:
[1] = tested on: CAL-148; conditions: 72 h
Method in brief: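 The reported EC50 was fitted from percent-inhibition dose-response curves and censored at the highest concentration. Breast cancer cell lines (20 µl suspension) were added to 384-well plates containing compound in 5 µl medium and incubated 72 h, and viability was read with 2.5 µl CellTiter-Blue over 2 h at 37 °C at 560/590 nm. Each plate was normalised to vehicle and a positive kill control and checked by Z'-factor, and rows with zero drug sensitivity score were dropped.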

[2] = tested on: MDA-MB-436; assay: normalised viability (% of control), CellTiter-Blue; higher = more viable cells (about 100 = DMSO control); conditions: incubation time: 72 h
Method in brief: (§1)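 Each value is normalised viability at a single listed concentration of the series. Breast cancer cell lines in 384-well plates were incubated 72 h with compound and read by CellTiter-Blue fluorescence at 560/590 nm, with vehicle set to 100 and a positive kill control to 0 on every plate.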

[3] = tested on: MDA-MB-453; assay: as above; conditions: incubation time: 72 h
Method in brief: as §1

[4] = tested on: CAL-85-1; assay: as above; conditions: incubation time: 72 h
Method in brief: as §1

[5] = tested on: BT-549; assay: as above; conditions: incubation time: 72 h
Method in brief: as §1

[6] = tested on: DU-4475; assay: as above; conditions: incubation time: 72 h
Method in brief: as §1

[7] = tested on: Hs578T; assay: as above; conditions: incubation time: 72 h
Method in brief: as §1

[8] = tested on: CAL-148; assay: as above; conditions: incubation time: 72 h
Method in brief: as §1

[9] = tested on: HCC1599; assay: as above; conditions: incubation time: 72 h
Method in brief: as §1

[10] = tested on: HDQ-P1; assay: normalised response (% of control), CellTiter-Glo; higher = more viable cells (100 = DMSO, 0 = benzethonium chloride kill control); conditions: incubation time: 72 h
Method in brief: (§2)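 Each value is the plate-normalised signal at one concentration of the series. Breast cancer cell lines (20 µl suspension) were incubated 72 h in 384-well plates with compound at 5 concentrations in 10-fold steps over a compound-specific 10,000-fold range. CellTox Green and then CellTiter-Glo were read, and each plate was scaled to 0.1 % DMSO (100) and a positive kill control (0).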

[11] = tested on: MDA-MB-436; assay: as above; conditions: incubation time: 72 h
Method in brief: as §2

[12] = tested on: HCC1937; assay: as above; conditions: incubation time: 72 h
Method in brief: as §2

[13] = tested on: CAL-51; assay: as above; conditions: incubation time: 72 h
Method in brief: as §2

[14] = tested on: MDA-MB-453; assay: as above; conditions: incubation time: 72 h
Method in brief: as §2

[15] = tested on: MFM-223; assay: as above; conditions: incubation time: 72 h
Method in brief: as §2

[16] = tested on: MDA-MB-468; assay: as above; conditions: incubation time: 72 h
Method in brief: as §2

[17] = tested on: BT-474; assay: as above; conditions: incubation time: 72 h
Method in brief: as §2

[18] = tested on: BT-549; assay: as above; conditions: incubation time: 72 h
Method in brief: as §2

[19] = tested on: MCF-10A; assay: as above; conditions: incubation time: 72 h
Method in brief: as §2

[20] = tested on: HCC1143; assay: as above; conditions: incubation time: 72 h
Method in brief: as §2

[21] = tested on: DU-4475; assay: as above; conditions: incubation time: 72 h
Method in brief: as §2

[22] = tested on: Hs578T; assay: as above; conditions: incubation time: 72 h
Method in brief: as §2

[23] = tested on: CAL-148; assay: as above; conditions: incubation time: 72 h
Method in brief: as §2

[24] = tested on: SK-BR-3; assay: as above; conditions: incubation time: 72 h
Method in brief: as §2

Row | Compound | EC50, CellTiter-Blue viability [1] | normalised viability ([2]; 10 nM) | normalised viability ([2]; 1000 nM) | normalised viability ([2]; 10000 nM) | normalised viability ([3]; 3 nM) | normalised viability ([3]; 30 nM) | normalised viability ([3]; 100 nM) | normalised viability ([4]; 3 nM) | normalised viability ([4]; 30 nM) | normalised viability ([4]; 100 nM) | normalised viability ([5]; 10 nM) | normalised viability ([5]; 1000 nM) | normalised viability ([5]; 10000 nM) | normalised viability ([6]; 3 nM) | normalised viability ([6]; 30 nM) | normalised viability ([6]; 100 nM) | normalised viability ([7]; 10 nM) | normalised viability ([7]; 1000 nM) | normalised viability ([7]; 10000 nM) | normalised viability ([8]; 3 nM) | normalised viability ([8]; 30 nM) | normalised viability ([8]; 100 nM) | normalised viability ([9]; 10 nM) | normalised viability ([9]; 1000 nM) | normalised viability ([9]; 10000 nM) | normalised response [10] | normalised response [11] | normalised response [12] | normalised response [13] | normalised response [14] | normalised response [15] | normalised response [16] | normalised response [17] | normalised response [18] | normalised response [19] | normalised response [20] | normalised response [21] | normalised response [22] | normalised response [23] | normalised response [24]
1 | C=C(c1ccc(C(=O)O)cc1)c1cc2c(cc1C)C(C)(C)CCC2(C)C [Bexarotene] | 1730 nM | 90.1% | 97.2% | 81% | 91% | 91.3% | 74.5% | 94.9% | 91.6% | 92% | 89.5% | 75.6% | 74.5% | 98.7% | 102% | 103% | 99% | 105% | 75.3% | 110% | 92.7% | 99.8% | 81.2% | 72.2% | 82.1% |  |  |  |  |  |  |  |  |  |  |  |  |  |  | 
2 | Cc1ccc(-n2nc(C(C)(C)C)cc2NC(=O)Nc2ccc(OCCN3CCOCC3)c3ccccc23)cc1 [Doramapimod] (1000 nM) |  |  |  |  |  |  |  |  |  |  |  |  |  |  |  |  |  |  |  |  |  |  |  |  |  | 89.1% | 105% | 95.1% | 111% | 85.8% | 87.6% | 87.5% | 86.1% | 99.6% | 89.1% | 95.2% | 96% | 97% | 80.3% | 80.8%
3 | C#Cc1cccc(Nc2ncnc3cc(OCCOC)c(OCCOC)cc23)c1 [Erlotinib] (1000 nM) |  |  |  |  |  |  |  |  |  |  |  |  |  |  |  |  |  |  |  |  |  |  |  |  |  | 69.3% | 99.9% | 93.4% | 80.3% | 107% | 100% | 82.9% | 96.3% | 100% | 37.1% | 94.7% | 104% | 99.8% | 82.1% | 97.5%
4 | COc1cc([C@@H]2c3cc4c(cc3[C@@H](O[C@@H]3O[C@@H]5CO[C@@H](C)O[C@H]5[C@H](O)[C@H]3O)[C@H]3COC(=O)[C@H]23)OCO4)cc(OC)c1O [Etoposide] (1000 nM) |  |  |  |  |  |  |  |  |  |  |  |  |  |  |  |  |  |  |  |  |  |  |  |  |  | 97.6% | 67% | 94% | 65.7% | 153% | 114% | 87.3% | 93.2% | 76.7% | 99.8% | 86.2% | 56.8% | 91% | 69% | 67.7%
5 | O=P1(NCCCl)OCCCN1CCCl (stereo not given) [Ifosfamide] (1000 nM) |  |  |  |  |  |  |  |  |  |  |  |  |  |  |  |  |  |  |  |  |  |  |  |  |  | 104% | 91.3% | 97.7% | 105% | 92.5% | 92.5% | 90.9% | 93.3% | 96.1% | 95.6% | 94.7% | 90.6% | 97.8% | 89% | 92%
6 | CC1(C)NC(=O)N(c2ccc([N+](=O)[O-])c(C(F)(F)F)c2)C1=O [Nilutamide] (1000 nM) |  |  |  |  |  |  |  |  |  |  |  |  |  |  |  |  |  |  |  |  |  |  |  |  |  | 97.7% | 106% | 103% | 82.4% | 102% | 107% | 119% | 99.8% | 91.2% | 111% | 101% | 105% | 113% | 109% | 110%
7 | Cc1ccc(C(=O)Nc2ccc(CN3CCN(C)CC3)c(C(F)(F)F)c2)cc1C#Cc1cnc2cccnn12 [Ponatinib] (100 nM) |  |  |  |  |  |  |  |  |  |  |  |  |  |  |  |  |  |  |  |  |  |  |  |  |  | 92.1% | 97% | 97.2% | 112% | 110% | 54.5% | 120% | 93% | 107% | 103% | 97.6% | 99.3% | 96.5% | 99.6% | 107%
8 | Cn1c(Nc2ccc(C(F)(F)F)cc2)nc2cc(Oc3ccnc(-c4ncc(C(F)(F)F)[nH]4)c3)ccc21 [RAF265] (100 nM) |  |  |  |  |  |  |  |  |  |  |  |  |  |  |  |  |  |  |  |  |  |  |  |  |  | 75% | 89.8% | 91.6% | 77.8% | 110% | 96.5% | 85.5% | 99.3% | 91.1% | 91.4% | 95.9% | 95.3% | 82.5% | 97.1% | 92%
9 | CNCc1ccc(-c2[nH]c3cc(F)cc4c3c2CCNC4=O)cc1 [Rucaparib] (1000 nM) |  |  |  |  |  |  |  |  |  |  |  |  |  |  |  |  |  |  |  |  |  |  |  |  |  | 98.8% | 88.8% | 105% | 106% | 100% | 96.3% | 93.5% | 92.3% | 100% | 101% | 94.1% | 97.6% | 107% | 95.3% | 86.7%
